These are literature values, as cited in patent publication US5858398A, “Microparticular pharmaceutical compositions” (Isomed Inc., priority 1996, dated 1999).

The data set has as its system intestinal membranes.

“sn-1-acyl-3-glycerophosphorylcholine [lyso-PC]”: the “concentrations inducing histopathological damage to intestinal membranes” value is on record as 0.01-1 mM.
